Source: patent publication US20220128542A1, “TREATMENT EFFICIENCY EVALUATION” (TX MEDIC AB, priority 2019, published 2022)

System: brain of rats subjected to severe traumatic brain injury (sTBI)
Assay: Ingenuity pathway analysis of differentially regulated genes after sTBI (canonical pathways, diseases and molecular functions; Example 4)
Parameters: species or system rat
Details: TBI + 5 mg/kg LMW-DS
Description: Pathway analysis of the differentially regulated genes was carried out using the Ingenuity pathway analysis package. The analysis was performed with special reference to pathways and molecular processes and diseases associated with neurodegenerative disease, including dementia, Alzheimer's disease, ALS, TBI and stroke, and with scarring and fibrosis, including glaucoma and normal pressure hydrocephalus (NPH) after subarachnoid haemorrhage.

[1] = 7 days after TBI, relative to control

sodium salt of dextran sulfate [LMW-DS]
Effect on diseases or functions annotation: Resorption of bone (2 days after TBI): Inhibited | Effect on diseases or functions annotation: Secretion of molecule (2 days after TBI): Activated | Effect on diseases or functions annotation: Size of body (2 days after TBI): Inhibited | Effect on diseases or functions annotation: Synthesis of hormone (2 days after TBI): Inhibited | Effect on diseases or functions annotation: Transcription of RNA (2 days after TBI): Inhibited | Effect on diseases or functions annotation: Transport of molecule (2 days after TBI): Activated | Effect on diseases or functions annotation: Vasculogenesis (2 days after TBI): Inhibited | z score, Ingenuity canonical pathway: Acute Phase Response Signaling [1]: 1.89 | z score, Ingenuity canonical pathway: Adrenomedullin signaling pathway [1]: −0.632 | z score, Ingenuity canonical pathway: Cardiac Hypertrophy Signaling [1]: 1 | z score, Ingenuity canonical pathway: Colorectal Cancer Metastasis Signaling [1]: −0.378 | z score, Ingenuity canonical pathway: Dendritic Cell Maturation [1]: 1.897 | z score, Ingenuity canonical pathway: ERK5 Signaling [1]: −0.447 | z score, Ingenuity canonical pathway: ERK/MAPK Signaling [1]: 1 | z score, Ingenuity canonical pathway: Endothelin-1 Signaling [1]: 1.633 | z score, Ingenuity canonical pathway: Fcγ Receptor-mediated Phagocytosis in Macrophages and Monocytes [1]: 2.236 | z score, Ingenuity canonical pathway: GNRH Signaling [1]: 2 | z score, Ingenuity canonical pathway: HMGB1 Signaling [1]: 1.134 | z score, Ingenuity canonical pathway: IL-1 Signaling [1]: 1 | z score, Ingenuity canonical pathway: IL-6 Signaling [1]: 1 | z score, Ingenuity canonical pathway: IL-8 Signaling [1]: 2.646 | z score, Ingenuity canonical pathway: ILK Signaling [1]: 1.89 | z score, Ingenuity canonical pathway: Leukocyte Extravasation Signaling [1]: 1.342 | z score, Ingenuity canonical pathway: Neuroinflammation Signaling Pathway [1]: 1.941 | z score, Ingenuity canonical pathway: Osteoarthritis Pathway [1]: -1 | z score, Ingenuity canonical pathway: PI3K Signaling in B Lymphocytes [1]: 1.89 | z score, Ingenuity canonical pathway: PKCθ Signaling in T Lymphocytes [1]: 2 | z score, Ingenuity canonical pathway: PPAR Signaling [1]: −1.342 | z score, Ingenuity canonical pathway: Phospholipase C Signaling [1]: 1 | z score, Ingenuity canonical pathway: Production of Nitric Oxide and Reactive Oxygen Species in Macrophages [1]: 2.236 | z score, Ingenuity canonical pathway: Protein Kinase A Signaling [1]: −1.342 | z score, Ingenuity canonical pathway: Role of NFAT in Regulation of the Immune Response [1]: 2.53 | z score, Ingenuity canonical pathway: Signaling by Rho Family GTPases [1]: 1 | z score, Ingenuity canonical pathway: Synaptic Long Term Depression [1]: 1 | z score, Ingenuity canonical pathway: Wnt/β-catenin Signaling [1]: −1 | z score, Ingenuity canonical pathway: cAMP-mediated signaling [1]: −2 | z score, Ingenuity canonical pathway: mTOR Signaling [1]: 1 | Diseases or functions annotation: Abdominal adenocarcinoma (7 days after TBI): Activated | Diseases or functions annotation: Abdominal cancer (7 days after TBI): Inhibited | Diseases or functions annotation: Abdominal carcinoma (7 days after TBI): Inhibited | Diseases or functions annotation: Abdominal neoplasm (7 days after TBI): Activated | Diseases or functions annotation: Adenocarcinoma (7 days after TBI): Inhibited | Diseases or functions annotation: Angiogenesis (7 days after TBI): Activated | Diseases or functions annotation: Apoptosis (7 days after TBI): Inhibited | Diseases or functions annotation: Apoptosis of tumor cell lines (7 days after TBI): Inhibited | Diseases or functions annotation: Bleeding (7 days after TBI): Inhibited | Diseases or functions annotation: Breast or colorectal cancer (7 days after TBI): Inhibited | Diseases or functions annotation: Breast or ovarian cancer (7 days after TBI): Inhibited | Diseases or functions annotation: Breast or pancreatic cancer (7 days after TBI): Inhibited | Diseases or functions annotation: Cancer (7 days after TBI): Activated | Diseases or functions annotation: Cancer of cells (7 days after TBI): Activated | Diseases or functions annotation: Cancer of secretory structure (7 days after TBI): Activated | Diseases or functions annotation: Carcinoma (7 days after TBI): Inhibited | Diseases or functions annotation: Cell cycle progression (7 days after TBI): Activated | Diseases or functions annotation: Cell death (7 days after TBI): Activated | Diseases or functions annotation: Cell death of epithelial cells (7 days after TBI): Activated | Diseases or functions annotation: Cell death of tumor cell lines (7 days after TBI): Inhibited | Diseases or functions annotation: Cell movement (7 days after TBI): Activated | Diseases or functions annotation: Cell movement of endothelial cells (7 days after TBI): Activated | Diseases or functions annotation: Cell movement of myeloid cells (7 days after TBI): Activated | Diseases or functions annotation: Cell movement of tumor cell lines (7 days after TBI): Activated | Diseases or functions annotation: Cell survival (7 days after TBI): Activated | Diseases or functions annotation: Cell viability (7 days after TBI): Activated | Diseases or functions annotation: Cell viability of tumor cell lines (7 days after TBI): Activated | Diseases or functions annotation: Cellular homeostasis (7 days after TBI): Activated | Diseases or functions annotation: Chemotaxis (7 days after TBI): Activated | Diseases or functions annotation: Concentration of lipid (7 days after TBI): Inhibited | Diseases or functions annotation: Development of body axis (7 days after TBI): Activated | Diseases or functions annotation: Development of body trunk (7 days after TBI): Activated | Diseases or functions annotation: Development of connective tissue cells (7 days after TBI): Activated | Diseases or functions annotation: Development of epithelial tissue (7 days after TBI): Activated | Diseases or functions annotation: Development of genitourinary system (7 days after TBI): Inhibited | Diseases or functions annotation: Development of head (7 days after TBI): Activated | Diseases or functions annotation: Development of neurons (7 days after TBI): Activated | Diseases or functions annotation: Development of sensory organ (7 days after TBI): Activated | Diseases or functions annotation: Development of vasculature (7 days after TBI): Activated | Diseases or functions annotation: Differentiation of bone (7 days after TBI): Activated | Diseases or functions annotation: Differentiation of bone cells (7 days after TBI): Activated | Diseases or functions annotation: Differentiation of connective tissue cells (7 days after TBI): Activated | Diseases or functions annotation: Digestive organ tumor (7 days after TBI): Inhibited | Diseases or functions annotation: Digestive system cancer (7 days after TBI): Inhibited | Diseases or functions annotation: Endocrine gland tumor (7 days after TBI): Inhibited | Diseases or functions annotation: Expression of RNA (7 days after TBI): Activated | Diseases or functions annotation: Extracranial solid tumor (7 days after TBI): Activated | Diseases or functions annotation: Failure of kidney (7 days after TBI): Activated | Diseases or functions annotation: Formation of eye (7 days after TBI): Activated | Diseases or functions annotation: Gastrointestinal tumor (7 days after TBI): Inhibited | Diseases or functions annotation: Genital tumor (7 days after TBI): Activated | Diseases or functions annotation: Genitourinary carcinoma (7 days after TBI): Activated | Diseases or functions annotation: Genitourinary tumor (7 days after TBI): Activated | Diseases or functions annotation: Glucose metabolism disorder (7 days after TBI): Activated | Diseases or functions annotation: Growth of connective tissue (7 days after TBI): Inhibited | Diseases or functions annotation: Growth of epithelial tissue (7 days after TBI): Inhibited | Diseases or functions annotation: Growth of tumor (7 days after TBI): Activated | Diseases or functions annotation: Head and neck cancer (7 days after TBI): Inhibited | Diseases or functions annotation: Head and neck tumor (7 days after TBI): Inhibited | Diseases or functions annotation: Hematologic cancer (7 days after TBI): Inhibited | Diseases or functions annotation: Hematologic cancer of cells (7 days after TBI): Inhibited | Diseases or functions annotation: Hematopoietic neoplasm (7 days after TBI): Inhibited | Diseases or functions annotation: Intestinal tumor (7 days after TBI): Inhibited | Diseases or functions annotation: Invasion of cells (7 days after TBI): Activated | Diseases or functions annotation: Leukocyte migration (7 days after TBI): Activated | Diseases or functions annotation: Lymphatic system tumor (7 days after TBI): Inhibited | Diseases or functions annotation: Lymphocytic cancer (7 days after TBI): Inhibited | Diseases or functions annotation: Lymphocytic neoplasm (7 days after TBI): Inhibited | Diseases or functions annotation: Lymphoid cancer (7 days after TBI): Inhibited | Diseases or functions annotation: Lymphoma (7 days after TBI): Inhibited | Diseases or functions annotation: Lymphoproliferative disorder (7 days after TBI): Inhibited | Diseases or functions annotation: Lymphoreticular neoplasm (7 days after TBI): Inhibited | Diseases or functions annotation: Malignant genitourinary solid tumor (7 days after TBI): Activated | Diseases or functions annotation: Malignant solid tumor (7 days after TBI): Activated | Diseases or functions annotation: Microtubule dynamics (7 days after TBI): Activated | Diseases or functions annotation: Migration of cells (7 days after TBI): Activated | Diseases or functions annotation: Migration of endothelial cells (7 days after TBI): Activated | Diseases or functions annotation: Morbidity or mortality (7 days after TBI): Inhibited | Diseases or functions annotation: Necrosis (7 days after TBI): Activated | Diseases or functions annotation: Necrosis of epithelial tissue (7 days after TBI): Activated | Diseases or functions annotation: Neoplasia of cells (7 days after TBI): Activated | Diseases or functions annotation: Neoplasia of leukocytes (7 days after TBI): Inhibited | Diseases or functions annotation: Non-hematological solid tumor (7 days after TBI): Activated | Diseases or functions annotation: Non-melanoma solid tumor (7 days after TBI): Activated | Diseases or functions annotation: Nonhematologic malignant neoplasm (7 days after TBI): Inhibited | Diseases or functions annotation: Obesity (7 days after TBI): Activated | Diseases or functions annotation: Organismal death (7 days after TBI): Inhibited | Diseases or functions annotation: Organization of cytoskeleton (7 days after TBI): Activated | Diseases or functions annotation: Pelvic tumor (7 days after TBI): Activated | Diseases or functions annotation: Peripheral vascular disease (7 days after TBI): Activated | Diseases or functions annotation: Proliferation of connective tissue cells (7 days after TBI): Inhibited | Diseases or functions annotation: Proliferation of epithelial cells (7 days after TBI): Inhibited | Diseases or functions annotation: Quantity of cells (7 days after TBI): Activated | Diseases or functions annotation: Quantity of connective tissue (7 days after TBI): Activated | Diseases or functions annotation: Renal impairment (7 days after TBI): Activated | Diseases or functions annotation: Secretion of molecule (7 days after TBI): Activated | Diseases or functions annotation: Sensory system development (7 days after TBI): Inhibited | Diseases or functions annotation: Size of body (7 days after TBI): Activated | Diseases or functions annotation: Skin lesion (7 days after TBI): Inhibited | Diseases or functions annotation: Skin tumor (7 days after TBI): Inhibited | Diseases or functions annotation: Solid tumor (7 days after TBI): Activated | Diseases or functions annotation: Synthesis of lipid (7 days after TBI): Activated | Diseases or functions annotation: Transcription (7 days after TBI): Activated | Diseases or functions annotation: Transcription of RNA (7 days after TBI): Activated | Diseases or functions annotation: Transport of molecule (7 days after TBI): Activated | Diseases or functions annotation: Tumorigenesis of tissue (7 days after TBI): Inhibited | Diseases or functions annotation: Vasculogenesis (7 days after TBI): Activated
